In article PMC6062912, “The Evolutionary Conserved γ-Core Motif Influences the Anti-Candida Activity of the Penicillium chrysogenum Antifungal Protein PAF” (Frontiers in Microbiology, 2018):
≈ marks a conversion by molar mass, not a printed value. Residues, ends and D or L forms follow the SMILES beside them.

Assays:
Assay type in all cases: cell-based, Candida albicans
C. albicans biofilms = experiment: Anti-biofilm activity, FDA fluorescence; conditions: AMP 0–40 μM for 24 h at 30°C; for concentration inhibiting cell metabolism in biofilm (FDA fluorescence): 24-h-old biofilms; for concentration with anti-biofilm (inhibitory) activity, extinction of FDA fluorescence: 1 h old (young) biofilms
Procedure: The antifungal activity against C. albicans biofilms was determined in 96-well microtiter plates (Nunclon Delta, Thermo Fisher Scientific). Cells (10^5) in 100 μL 0.05× PDB were distributed per well and plates were incubated at 37°C for up to 24 h to allow biofilm formation. After cell adherence, the microtiter plates were washed once with 0.05× PDB and the test substances were added in increasing concentrations in 100 μL 0.05× PDB per well. H2O2 served as a control for cell killing. The plates were further incubated at 30°C for 24 h. The wells were washed once with 0.05× PDB and 100 μL of FDA solution (40 μg mL^-1 in 0.05× PDB) was added to the wells. Wells containing only FDA solution (40 μg mL^-1 in 0.05× PDB) were used as blank background control. The plates were incubated for 1 h at 37°C in the dark before the fluorescence signal intensity was measured in a multi-mode microplate reader (FLUOstar Omega, BMG Labtech) with excitation and emission wavelengths of 485 and 520 nm. All experiments were prepared at least in duplicates and repeated at least twice.
Next, we analyzed the potential of the AMPs to inhibit C. albicans biofilm formation. Low susceptibility of biofilms to antifungal agents is often a limiting factor in anti-Candida treatment. To this end, C. albicans cells were distributed in 96-well microtiter plates, allowed to settle down, and to develop biofilms for 1 and 24 h. Then, planktonic cells were washed off and AMPs were added to the biofilms for another 24 h in a concentration range of 0–40 μM. The biofilms were then quantified by adding FDA to the wells. Metabolically active cells convert non-fluorescent FDA into highly fluorescent fluorescein by intracellular enzymatic activity ([Peeters et al., 2008]). The resulting fluorescence signal intensity from AMP-treated biofilms was measured and compared to untreated conditions. […] Twenty-four-hour-old biofilms, however, were resistant against PAF, PAF^var, and PAF^opt in the investigated concentration range (data not shown).

C. albicans [1] = experiment: Cell size reduction (FSC) by flow cytometry; conditions: 2× MIC, mean ± SD
Procedure: To analyze changes in cell size and to assess kinetics of cell death of C. albicans upon antifungal treatment flow cytometry was applied. For both experiments, 10^4 cells mL^-1 was incubated in 0.05× PDB with the desired AMP concentration for different time points. The incubation was performed in 1.5 mL reaction tubes at 30°C under continuous shaking at 800 rpm in a Thermomixer Comfort (Eppendorf). After incubation, the cells were centrifuged at 4°C with 3,000 ×g for 3 min. For cell size determination, the supernatant was removed and the cells were resuspended and fixed in PBS containing 3.7% (v/v) formaldehyde before changes in cell size were measured by plotting SSC against FSC. C. albicans that were incubated at 95°C for 120 min served as controls. Microscopic control-images were taken with a fluorescence microscope (Axioplan, Zeiss), equipped with a camera (Axiocam 503 mono, Zeiss) and excitation/emission filters (365/420 nm for blue fluorescence and 546/590 or 565/620 nm for red fluorescence, Zeiss). Image acquisition was performed with ZEN 2 microscope software (Zeiss, blue edition) and the cell area was measured with ImageJ 1.52d software ([Schindelin et al., 2012]).
Cell shrinkage of C. albicans is a sign for cell death when exposed to AMPs ([Lee et al., 2017]). We therefore analyzed the changes in size of AMP-treated C. albicans cells by recording the FSC with flow cytometry. To this end, C. albicans cells were analyzed after 10 and 30 min of exposure to 1× MIC and 2× MIC of AMPs (Figure 5). Heat-killed and untreated C. albicans cells served as positive and negative controls, respectively (Supplementary Figure S8). […] Pγ^var and Pγ^opt caused a very prominent decrease in the FSC value compared to the untreated cell population when applied at 2× MIC. Pγ^var and Pγ^opt reduced the average cell size after a 10-min treatment by 28 ± 13 (P = 0.022) and 18 ± 10% (P = 0.041), respectively, and after 30 min the cell size was reduced by 48 ± 8 (P < 0.001) and 37 ± 12% (P = 0.007), respectively.

C. albicans [2] = conditions: 24 h
Procedure: Fungal strains used in this study are listed in Supplementary Table S1 and composition of growth media is given in Supplementary Table S2. All P. chrysogenum shaking cultures were inoculated with 2 × 10^8 conidia, in 200 mL defined minimal medium (PcMM) for protein expression or complete medium (CM) before transformation, and grown at 25°C as described ([Sonderegger et al., 2016]). For conidial suspension generation from surface cultures, P. chrysogenum was grown on PcMM agar at 25°C. C. albicans was used as PAF-sensitive model organism and was cultivated on yeast extract peptone dextrose (YPD) agar at 37°C. For growth inhibition and susceptibility assays, C. albicans was grown in 20-fold diluted potato dextrose broth (PDB, Sigma-Aldrich) at 30°C, pH 5.5 ([Huber et al., 2018]).
The MIC of all protein and peptide variants was determined on C. albicans with broth microdilution assays in 96-well microtiter plates (Nunclon Delta, Thermo Fisher Scientific). From a fresh C. albicans overnight culture on YPD agar, cells were harvested with an inoculation loop and suspended in 0.05× PDB (Sigma-Aldrich) ([Arendrup et al., 2016]). The cell number was determined with a counting chamber (Bürker) and the cell number was adjusted to 10^4 mL^-1. In each well, 10^3 cells were incubated with increasing concentrations of antifungal proteins or peptides in a final volume of 200 μL 0.05× PDB. The plates were incubated for 24 h at 30°C before the growth was determined by measuring the optical density (OD620nm) with a multi-mode microplate reader (FLUOstar Omega, BMG Labtech). The MIC was defined as the protein concentration that inhibited growth by ≥90% compared to the untreated control, which was referred as 100% growth.

CC(=O)N[C@@H](CCCCN)C(=O)N[C@@H](Cc1ccc(O)cc1)C(=O)N[C@H](C(=O)NCC(=O)N[C@@H](CCCCN)C(=O)N[C@@H](CS)C(=O)N[C@@H](CCCCN)C(=O)N[C@H](C(=O)N[C@@H](CCCCN)C(=O)N[C@@H](CCCCN)C(=O)N[C@@H](CC(N)=O)C(=O)N[C@@H](CCCCN)C(=O)N[C@@H](CS)C(=O)N[C@@H](CCCCN)C(N)=O)[C@@H](C)O)[C@@H](C)O [Pγ^opt] (Ac-KYTGKCKTKKNKCK-NH2)
concentration inhibiting cell metabolism in biofilm (FDA fluorescence) (C. albicans biofilms): 10 µM
concentration with anti-biofilm (inhibitory) activity, extinction of FDA fluorescence (C. albicans biofilms): 10 µM
cell size reduction (change in FSC vs untreated cells) (C. albicans [1]; 10 min): 18 ± 10%
cell size reduction (change in FSC vs untreated cells) (C. albicans [1]; 30 min): 37 ± 12%

CC(=O)N[C@@H](CCCCN)C(=O)N[C@@H](Cc1ccc(O)cc1)C(=O)N[C@H](C(=O)NCC(=O)N[C@@H](CCCCN)C(=O)N[C@@H](CS)C(=O)N[C@@H](Cc1ccc(O)cc1)C(=O)N[C@@H](CCCCN)C(=O)N[C@@H](CCCCN)C(=O)N[C@@H](CCCCN)C(=O)N[C@@H](CC(N)=O)C(=O)N[C@@H](CCC(=O)O)C(=O)N[C@@H](CS)C(=O)N[C@@H](CCCCN)C(N)=O)[C@@H](C)O [Pγ^var] (Ac-KYTGKCYKKKNECK-NH2)
MIC (C. albicans [2]): 2.5 µM (≈ 4.41 µg/mL)
concentration inhibiting cell metabolism in biofilm (FDA fluorescence) (C. albicans biofilms): 20 µM
concentration with anti-biofilm (inhibitory) activity, extinction of FDA fluorescence (C. albicans biofilms): 10 µM
cell size reduction (change in FSC vs untreated cells) (C. albicans [1]; 10 min): 28 ± 13%
cell size reduction (change in FSC vs untreated cells) (C. albicans [1]; 30 min): 48 ± 8%
